We go through 22 molecules from US20260365653A1, “IRREVERSIBLE MUTEGFR INHIBITORS” (Bayer Aktiengesellschaft, priority 2022, published 2026).

In test [1] the target is T1, mutEGFR (D770_N771insSVD) (Homo sapiens, UniProt P00533, DUP768-770).
T1 construct: GST-EGFR #3 (SVD between D770 and N771); made in house; host or cells: Sf9 insect cells (baculovirus)
Briefly: Exon20-Mutant-EGFR (D770_N771insSVD) kinase assay (TR-FRET). Particulars: mutEGFR (D770_N771insSVD) kinase assay IC50, Table 2a; D770_N771insSVD; 2 mM ATP. The test is classed as biochemical.

Test [2] addresses T2, mutEGFR (D770_N771insNPG, T790) (Homo sapiens, UniProt P00533, INS770NPG/T790M).
T2 construct: exact insNPG construct not described; in-house EGFR proteins were N-terminal GST fusions from baculovirus/insect cells (borders R669-A1210 given only for WT, insSVD, insASV)
Put plainly: mutEGFR (D770_N771insNPG, T790) kinase assay. It is filed as biochemical. Particulars: Table 2a, D770_N771insNPG. The source says:
The different EGFR proteins used in the biochemical kinase activity inhibition assays were generated inhouse by expression in insect cells using Baculo Virus system and subsequent purification as described in the following paragraphs.
The cDNAs encoding the various protein sequences from human EGFR human (P00533) were optimized for expression in eukaryotic cells and synthesized by the GeneArt Technology at Life Technologies.

Another test has as its system BA/F3 (insSVD) cells. Briefly: Ba/F3-EGFR-insSVD cell survival assay (Cell Titer-Glo). The test is classed as cell-based. Particulars: Mus musculus, BaF3, 48 h, Table 3a, cell survival, Cell Titer-Glo, with 10 ng/ml EGF, without IL-3. In short, it runs like this: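 CellTiter-Glo luminescence read after 48 h compound exposure at 37° C. Cells: IL-3-independent Ba/F3 lines transduced with EGFR-insSVD or EGFR-insSVD T790M, maintained on 10 ng/ml EGF and seeded at 4000 per well.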
(Cellular ATP, detected with luciferase, serves as a proxy for viable cell number.)

T1 sequence (P00533 with tags, fused parts or gaps DUP768-770): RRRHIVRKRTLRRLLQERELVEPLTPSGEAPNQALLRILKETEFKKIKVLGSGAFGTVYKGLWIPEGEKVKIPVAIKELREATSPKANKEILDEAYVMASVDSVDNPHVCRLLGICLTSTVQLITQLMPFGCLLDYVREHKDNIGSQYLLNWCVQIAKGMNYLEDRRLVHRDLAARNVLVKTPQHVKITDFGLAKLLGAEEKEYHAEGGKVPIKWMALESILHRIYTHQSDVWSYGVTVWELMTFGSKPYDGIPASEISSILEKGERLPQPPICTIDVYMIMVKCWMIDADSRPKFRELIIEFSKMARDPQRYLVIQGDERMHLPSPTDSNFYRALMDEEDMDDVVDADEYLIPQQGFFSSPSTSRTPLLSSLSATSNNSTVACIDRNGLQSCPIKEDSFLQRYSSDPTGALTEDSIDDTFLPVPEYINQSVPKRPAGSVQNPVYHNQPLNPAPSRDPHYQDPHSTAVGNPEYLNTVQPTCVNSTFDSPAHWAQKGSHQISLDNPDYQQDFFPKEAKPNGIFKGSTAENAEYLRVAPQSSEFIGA
T2 sequence (P00533 with tags, fused parts or gaps INS770NPG/T790M limits assumed): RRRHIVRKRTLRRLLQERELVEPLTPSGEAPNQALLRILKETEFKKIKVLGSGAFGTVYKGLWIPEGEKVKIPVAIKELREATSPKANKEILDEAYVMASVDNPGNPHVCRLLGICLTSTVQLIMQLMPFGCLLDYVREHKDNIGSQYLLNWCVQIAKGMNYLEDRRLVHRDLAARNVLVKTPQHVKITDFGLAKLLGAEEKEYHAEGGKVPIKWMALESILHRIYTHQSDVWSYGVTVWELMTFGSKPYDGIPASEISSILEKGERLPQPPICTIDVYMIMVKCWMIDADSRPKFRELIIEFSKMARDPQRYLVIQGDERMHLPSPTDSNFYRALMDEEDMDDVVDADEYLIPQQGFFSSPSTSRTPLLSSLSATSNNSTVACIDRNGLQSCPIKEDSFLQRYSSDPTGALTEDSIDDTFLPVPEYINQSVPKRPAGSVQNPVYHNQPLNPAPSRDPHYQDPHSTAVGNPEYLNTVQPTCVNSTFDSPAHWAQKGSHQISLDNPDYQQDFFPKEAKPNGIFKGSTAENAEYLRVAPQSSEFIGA

On to `CN(C)C/C=C/C(=O)N1CCn2nc(-c3ccc4nn[nH]c4c3)c(-c3ccncc3)c2C1` [Example 198, (2E)-1-[2-(1H-benzotriazol-6-yl)-3-(pyridin-4-yl)-6,7-dihydropyrazolo[1,5-a]pyrazin-5(4H)-yl]-4-(dimethylamino)but-2-en-1-one], for which the values for the IC50 (in test [1]; in test [2]; in the test with BA/F3 (insSVD) cells) were 0.476 µM, 1.07 µM and 6.39 µM, respectively.
The like results for `CN(C)C/C=C/C(=O)N1CCn2nc(-c3ccc4occc4c3)c(-c3ccncc3)c2C1` [Example 199, (2E)-1-[2-(1-benzofuran-5-yl)-3-(pyridin-4-yl)-6,7-dihydropyrazolo[1,5-a]pyrazin-5(4H)-yl]-4-(dimethylamino)but-2-en-1-one] were, in that order, 0.000672 µM, 0.00205 µM and 0.132 µM.
The like results for `CN(C)C/C=C/C(=O)N1CCn2nc(-c3ccc4cc[nH]c4c3)c(-c3ccncc3)c2C1` [Example 200, (2E)-4-(dimethylamino)-1-[2-(1H-indol-6-yl)-3-(pyridin-4-yl)-6,7-dihydropyrazolo[1,5-a]pyrazin-5(4H)-yl]but-2-en-1-one] were, in that order, 0.000161 µM, 0.000317 µM and 0.069 µM.
Taken in the same sequence, the figures for `C=CC(=O)N1Cc2c(-c3ccncc3)c(-c3ccc(F)cc3)nn2C(C)(C)C1` [Example 207, 1-[2-(4-fluorophenyl)-7,7-dimethyl-3-(pyridin-4-yl)-6,7-dihydropyrazolo[1,5-a]pyrazin-5(4H)-yl]prop-2-en-1-one] were 0.000644 µM, 0.00222 µM and 0.0246 µM.
As to `C=CC(=O)N1Cc2c(-c3ccncc3)c(-c3ccc(Cl)c(C)c3)nn2C(C)(C)C1` [Example 208, 1-[2-(4-chloro-3-methylphenyl)-7,7-dimethyl-3-(pyridin-4-yl)-6,7-dihydropyrazolo[1,5-a]pyrazin-5(4H)-yl]prop-2-en-1-one], the IC50 (as a rule, the concentration that gives 50% inhibition) in test [1] came to 0.00014 µM; in test [2], 0.000365 µM; with BA/F3 (insSVD) cells, 0.0158 µM.
The like results for `C=CC(=O)N1Cc2c(-c3ccncc3)c(-c3ccc(Cl)cc3)nn2C(C)(C)C1` [Example 209, 1-[2-(4-chlorophenyl)-7,7-dimethyl-3-(pyridin-4-yl)-6,7-dihydropyrazolo[1,5-a]pyrazin-5(4H)-yl]prop-2-en-1-one] were, in that order, 0.000226 µM, 0.000694 µM and 0.00815 µM.
The like results for `C=CC(=O)N1Cc2c(-c3ccncc3)c(-c3ccc(F)cc3)nn2CC1(C)C` [Example 210, 1-[2-(4-fluorophenyl)-6,6-dimethyl-3-(pyridin-4-yl)-6,7-dihydropyrazolo[1,5-a]pyrazin-5(4H)-yl]prop-2-en-1-one] were, in that order, 0.0259 µM, 0.0604 µM and 0.551 µM.
Turning to `C=CC(=O)N1Cc2c(-c3ccncc3)c(-c3ccc(Cl)cc3)nn2CC1(C)C` [Example 211, 1-[2-(4-chlorophenyl)-6,6-dimethyl-3-(pyridin-4-yl)-6,7-dihydropyrazolo[1,5-a]pyrazin-5(4H)-yl]prop-2-en-1-one], the IC50 in test [1] worked out at 0.0125 µM; in test [2], 0.0405 µM; in the test with BA/F3 (insSVD) cells, 0.378 µM.
Taken in the same sequence, the figures for `C=CC(=O)N1Cc2c(-c3ccncc3)c(-c3ccc(Cl)c(C)c3)nn2CC1(C)C` [Example 212, 1-[2-(4-chloro-3-methylphenyl)-6,6-dimethyl-3-(pyridin-4-yl)-6,7-dihydropyrazolo[1,5-a]pyrazin-5(4H)-yl]prop-2-en-1-one] were 0.00561 µM, 0.0101 µM and 0.296 µM.
Taken in the same sequence, the figures for `CN(C)C/C=C/C(=O)N1Cc2c(-c3ccncc3)c(-c3ccc(F)cc3)nn2C(C)(C)C1` [Example 213, (2E)-4-(dimethylamino)-1-[2-(4-fluorophenyl)-7,7-dimethyl-3-(pyridin-4-yl)-6,7-dihydropyrazolo[1,5-a]pyrazin-5(4H)-yl]but-2-en-1-one] were 0.000902 µM, 0.00327 µM and 0.112 µM.
The like results for `Cc1cc(-c2nn3c(c2-c2ccncc2)CN(C(=O)/C=C/CN(C)C)CC3(C)C)ccc1Cl` [Example 214, (2E)-1-[2-(4-chloro-3-methylphenyl)-7,7-dimethyl-3-(pyridin-4-yl)-6,7-dihydropyrazolo[1,5-a]pyrazin-5(4H)-yl]-4-(dimethylamino)but-2-en-1-one] were, in that order, 0.000272 µM, 0.000654 µM and 0.069 µM.
As to `CN(C)C/C=C/C(=O)N1Cc2c(-c3ccncc3)c(-c3ccc(Cl)cc3)nn2C(C)(C)C1` [Example 215, (2E)-1-[2-(4-chlorophenyl)-7,7-dimethyl-3-(pyridin-4-yl)-6,7-dihydropyrazolo[1,5-a]pyrazin-5(4H)-yl]-4-(dimethylamino)but-2-en-1-one], the figures for the IC50 (in test [1]; in test [2]; in the test with BA/F3 (insSVD) cells) were 0.000513 µM, 0.0012 µM and 0.0417 µM, respectively.
For `CN(C)C/C=C/C(=O)N1Cc2c(-c3ccncc3)c(-c3ccc(F)cc3)nn2CC1(C)C` [Example 216, (2E)-4-(dimethylamino)-1-[2-(4-fluorophenyl)-6,6-dimethyl-3-(pyridin-4-yl)-6,7-dihydropyrazolo[1,5-a]pyrazin-5(4H)-yl]but-2-en-1-one], the IC50 was found to be 0.025 µM in test [1], 0.164 µM in test [2] and 0.418 µM in the test with BA/F3 (insSVD) cells.
The like results for `CN(C)C/C=C/C(=O)N1Cc2c(-c3ccncc3)c(-c3ccc(Cl)cc3)nn2CC1(C)C` [Example 217, (2E)-1-[2-(4-chlorophenyl)-6,6-dimethyl-3-(pyridin-4-yl)-6,7-dihydropyrazolo[1,5-a]pyrazin-5(4H)-yl]-4-(dimethylamino)but-2-en-1-one] were, in that order, 0.0062 µM, 0.0598 µM and 0.277 µM.
With `Cc1cc(-c2nn3c(c2-c2ccncc2)CN(C(=O)/C=C/CN(C)C)C(C)(C)C3)ccc1Cl` [Example 218, (2E)-1-[2-(4-chloro-3-methylphenyl)-6,6-dimethyl-3-(pyridin-4-yl)-6,7-dihydropyrazolo[1,5-a]pyrazin-5(4H)-yl]-4-(dimethylamino)but-2-en-1-one], the IC50 turned out to be 0.00699 µM in test [1], 0.0164 µM in test [2] and 0.367 µM in the test on BA/F3 (insSVD) cells.
Taken in the same sequence, the figures for `C=CC(=O)N1Cc2c(-c3ccncc3)c(-c3ccc(F)cc3)nn2C(CCO)C1` (stereo not drawn) [Example 223, 1-(2-(4-fluorophenyl)-7-(2-hydroxyethyl)-3-(pyridin-4-yl)-6,7-dihydropyrazolo[1,5-a]pyrazin-5(4H)-yl) prop-2-en-1-one] were 0.000336 µM, 0.00125 µM and 0.018 µM.
Taken in the same sequence, the figures for `C=CC(=O)N1Cc2c(-c3ccncc3)c(-c3ccc(F)cc3)nn2C(CC(N)=O)C1` (stereo not drawn) [Example 224, 2-(5-acryloyl-2-(4-fluorophenyl)-3-(pyridin-4-yl)-4,5,6,7-tetrahydropyrazolo[1,5-a]pyrazin-7-yl) acetamide] were 0.00238 µM, 0.00759 µM and 0.338 µM.
Taken in the same sequence, the figures for `C=CC(=O)N1Cc2c(-c3ccncc3)c(-c3ccc(F)cc3)nn2C(CC(=O)NC)C1` (stereo not drawn) [Example 225, 2-(5-acryloyl-2-(4-fluorophenyl)-3-(pyridin-4-yl)-4,5,6,7-tetrahydropyrazolo[1,5-a]pyrazin-7-yl)-N-methylacetamide] were 0.0101 µM, 0.0366 µM and 0.386 µM.
`C=CC(=O)N1Cc2c(-c3ccncc3)c(-c3ccc(F)cc3)nn2C(CC(=O)N(C)C)C1` (stereo not drawn) [Example 226, 2-(5-acryloyl-2-(4-fluorophenyl)-3-(pyridin-4-yl)-4,5,6,7-tetrahydropyrazolo[1,5-a]pyrazin-7-yl)-N,N-dimethylacetamide]: the IC50 in test [1] worked out at 0.014 µM; in test [2] it was 0.0233 µM; in the test with BA/F3 (insSVD) cells, 0.134 µM.
Taken in the same sequence, the figures for `C=CC(=O)N1Cc2c(-c3ccncc3)c(-c3ccc(Cl)cc3F)nn2CC1C` (stereo not drawn) [Example 227, 1-(2-(4-chloro-2-fluorophenyl)-6-methyl-3-(pyridin-4-yl)-6,7-dihydropyrazolo[1,5-a]pyrazin-5(4H)-yl) prop-2-en-1-one] were 0.00012 µM, 0.000394 µM and 0.00594 µM.
Taken in the same sequence, the figures for `C[C@H]1Cn2nc(-c3ccc(Cl)cc3)c(-c3ccncc3)c2CN1C(=O)/C=C/CN(C)C` [Example 245, (2E)-1-[(6S)-2-(4-chlorophenyl)-6-methyl-3-(pyridin-4-yl)-6,7-dihydropyrazolo[1,5-a]pyrazin-5(4H)-yl]-4-(dimethylamino)but-2-en-1-one] were 0.000113 µM, 0.000262 µM and 0.0119 µM.
The like results for `C[C@@H]1Cn2nc(-c3ccc(Cl)cc3)c(-c3ccncc3)c2CN1C(=O)/C=C/CN(C)C` [Example 246, (2E)-1-[(6R)-2-(4-chlorophenyl)-6-methyl-3-(pyridin-4-yl)-6,7-dihydropyrazolo[1,5-a]pyrazin-5(4H)-yl]-4-(dimethylamino)but-2-en-1-one] were, in that order, 0.000131 µM, 0.000203 µM and 0.0337 µM.
